Patent US4835185A, “Immunomodulator for improving commercial performance of domestic animals” (Iowa State University Research Foundation, Inc., priority 1987, dated 1989)

Key:
[1] = Feeding of calcium versus sodium KIC to ruminants; assay type: in vivo, ruminants such as cattle and sheep
[2] = Water solubility of KIC salts; assay type: physicochemical; settings: vs ammonium and alkali metal salts
plasma cortisol = assay: Plasma cortisol in pigs after test meals; assay type: in vivo
Procedure: To determine if KIC could acutely alter cortisol concentrations, young pigs were fed meals supplemented with leucine or KIC and plasma cortisol was measured.
In experiment 1, sixteen female pigs weighing 20-30 kg were used. Seven days before study, catheters were surgically placed in the right atria for blood sampling. Animals were housed in individual cages during the recovery period and had free access to water. Preceding the experiment, animals were fed twice daily a basal diet (2% of body weight per feeding). The basal diet consisted of a corn-soybean mix, adequate in all minerals and vitamins and containing approximately 14% crude protein. Test meals were formulated by additions to a basal diet. Five animals received the basal diet (control); five animals received the leucine meal, which had 2% leucine added to the basal diet; and six animals received the KIC diet, which had 2% KIC (sodium salt equivalent to 1.7% free acid) added to the basel diet. Studies were begun between 0800 and 0900 h after a 24-hr fast. Basal blood samples were taken at -20, -10 and -5 min. Animals were then offered 100 g of their respective test meal (time 0). Pigs were included in the study only if they consumed the entire meal in the first 20 min. […] Plasma was separated, Trasylol (FBA Pharmaceuticals, New York, NY) added (50 ul/ml), and plasma stored at -70 C. until analyzed.
(§1) Cortisol was measured by coated tube kits (Gammacoat, Travenol-Genetech Diagnostics, Cambridge, MA). Leucine and KIC were measured by high pressure liquid chromatography. Crystalline leucine was obtained from Sigma Chemical (St. Louis, MO) and KIC-sodium was obtained from SOBAC (Paris, France). Statistical analysis of the individual pig responses was conducted on mean plasma concentrations before the meal (-20 to 0 min) and after the meal (120 to 240 min). When the overall treatment F-value was significant, differences between individual treatments were determined using the pooled SEM and a T-test.

[3] = parameters: species or system pigs; settings: pig, in vivo
Text: In experiment 1, sixteen female pigs weighing 20-30 kg were used. Seven days before study, catheters were surgically placed in the right atria for blood sampling. Animals were housed in individual cages during the recovery period and had free access to water. Preceding the experiment, animals were fed twice daily a basal diet (2% of body weight per feeding). The basal diet consisted of a corn-soybean mix, adequate in all minerals and vitamins and containing approximately 14% crude protein. Test meals were formulated by additions to a basal diet. Five animals received the basal diet (control); five animals received the leucine meal, which had 2% leucine added to the basal diet; and six animals received the KIC diet, which had 2% KIC (sodium salt equivalent to 1.7% free acid) added to the basel diet. Studies were begun between 0800 and 0900 h after a 24-hr fast. Basal blood samples were taken at -20, -10 and -5 min. Animals were then offered 100 g of their respective test meal (time 0). Pigs were included in the study only if they consumed the entire meal in the first 20 min. Blood was sampled every 30 min from 120 to 240 min. Plasma was separated, Trasylol (FBA Pharmaceuticals, New York, NY) added (50 ul/ml), and plasma stored at -70 C. until analyzed.
as §1

SMILES	effectiveness relative to sodium salt [1]	water solubility [2]	Plasma cortisol, Change (plasma cortisol; 2% in meal, control -0.09) [µg/dL]	Plasma cortisol, Post (plasma cortisol; 2% in meal, pre: leucine 2.8, KIC 4.7, pooled SEM 0.49) [µg/dL]	change in plasma cortisol (plasma cortisol; 2% leucine in meal, nonsignificant) [%]	Plasma KIC, Change [3] [µM]	Plasma leucine, Change [3] [µM]	increase of plasma leucine concentration [3] [fold]	Plasma KIC, Post ([3]; 240 min) [µM]	Plasma leucine, Post ([3]; 240 min) [µM]
CC(C)CC(=O)C(=O)O [Ca-KIC]	generally comparably effective with the sodium salt	less water-soluble								
CC(C)C[C@H](N)C(=O)O [leucine, reference compound]			-0.48	2.4	-14	66	518	4	90	664
